Data published in ChEMBL document CHEMBL1201862, “PubChem BioAssay data set” (2004).
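Five concentrations, 48 hours, 96-well plates. Here, GI50 denotes the concentration required for 50% inhibition of growth.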 Active and inactive are the calls of the source. Cut-off read from the data, not from the text of the source: active = GI50 up to about 1.1 µM and inactive = higher.

Experiments:
Assay in all cases: inhibition of tumour cell growth, NCI panel, 48 h
[1] = system: 786-0
[2] = system: A549
[3] = system: COLO 205
[4] = system: DU-145
[5] = system: HL-60
[6] = system: MCF7
[7] = system: MDA-MB-231
[8] = system: MDA-MB-435
[9] = system: NCI-H460
[10] = system: OVCAR-3
[11] = system: OVCAR-4
[12] = system: OVCAR-5
[13] = system: OVCAR-8
[14] = system: PC-3
[15] = system: SK-OV-3
[16] = system: SR
[17] = system: UACC-257
[18] = system: UACC-62

Measured: GI50

CC(=O)OC1CCC2(C)C(=CCC3C2CCC2(C)C3CC3OC4(CCC(C)CN4)C(C)C32)C1 (stereo not drawn)
inactive: [1] 74.3 µM | [2] > 100 µM | [3] > 100 µM | [4] > 100 µM | [5] > 100 µM | [6] > 100 µM | [7] > 100 µM | [8] > 100 µM | [9] > 100 µM | [10] > 100 µM | [11] > 100 µM | [12] > 100 µM | [13] > 100 µM | [14] > 100 µM | [15] > 100 µM | [16] 80.2 µM | [17] > 100 µM | [18] > 100 µM

CC(C)(C)c1cc(C2COC(=O)COCCOCC(=O)OCCOCCO2)cc(C(C)(C)C)c1O (stereo not drawn)
inactive: [1] 10 µM | [2] > 100 µM | [3] 32.5 µM | [4] 19.5 µM | [5] 39.2 µM | [6] > 100 µM | [7] 46.6 µM | [8] 37.3 µM | [9] 49.4 µM | [10] > 100 µM | [11] > 100 µM | [12] 21.7 µM | [13] 41.6 µM | [14] 22.4 µM | [15] 32.1 µM | [16] 21.8 µM | [17] > 71.6 µM | [18] 47.9 µM

c1ccc(COc2ccc(C[P+](c3ccccc3)(c3ccccc3)c3ccccc3)cc2)cc1
active: [1] 0.371 µM | [2] 0.184 µM | [3] 0.129 µM | [4] 0.304 µM | [5] 0.0682 µM | [6] 0.1 µM | [7] 0.776 µM | [8] 0.225 µM | [9] 0.225 µM | [10] 0.146 µM | [11] 0.245 µM | [12] 0.269 µM | [13] 0.163 µM | [14] 0.131 µM | [15] 0.287 µM | [16] 0.46 µM | [17] 0.269 µM | [18] 0.195 µM

C=C(C)C(=O)CC[C@@H](C)[C@H]1[C@@H](OC2OC(CO)C(O)C(O)C2O)C[C@@]2(C)[C@@H]3C[C@H](O)C4C(C)(C)[C@@H](OC5OC(CO)C(O)C(O)C5O)CC[C@@]45C[C@@]35CC[C@]12C (stereo partly drawn)
inactive: [1] > 100 µM | [2] > 100 µM | [3] 92 µM | [4] > 100 µM | [5] 19.7 µM | [6] > 100 µM | [7] > 100 µM | [8] 68.9 µM | [9] 45.8 µM | [10] > 100 µM | [11] > 100 µM | [12] > 100 µM | [13] > 100 µM | [14] > 100 µM | [15] > 100 µM | [16] 71.1 µM | [17] > 100 µM | [18] > 100 µM

CCOC(=O)c1cc(-c2ccc(OC)cc2)c([N+](=O)[O-])[nH]1
inactive: [1] > 10 µM | [2] > 10 µM | [3] > 10 µM | [4] > 10 µM | [5] > 10 µM | [6] > 10 µM | [8] > 5.01 µM | [9] > 10 µM | [10] > 10 µM | [11] > 10 µM | [12] > 10 µM | [13] > 10 µM | [14] > 10 µM | [15] > 10 µM | [16] > 10 µM | [17] > 10 µM | [18] 7.78 µM
active: [7] 0.1 µM

N#Cc1c(Cl)c2cccnc2n2c1nc1ccccc12
active: [5] 0.507 µM | [16] 1.08 µM
inactive: [1] 1.77 µM | [2] 6.59 µM | [3] 1.99 µM | [4] 1.98 µM | [6] 2.71 µM | [7] 2.13 µM | [8] 4.3 µM | [9] 7.01 µM | [10] 2.72 µM | [11] 2.66 µM | [12] 14.2 µM | [13] 1.96 µM | [14] 2.41 µM | [15] 15.5 µM | [17] 2.69 µM | [18] 3.96 µM
